Source: patent publication US12553889B2, “Small molecules targeting the intrinsically disordered structural ensemble of α-synuclein protect against diverse α-synuclein mediated dysfunctions” (The Regents of the University of California, priority 2019, dated 2026)
Entries after “also recorded” stand apart in the source; their conditions may differ.

Key:
αSyn [1] = molecular target: T1, αSyn (Homo sapiens, UniProt P37840); test: Cellular oligomerization assay (split Gaussia luciferase complementation in H4 cells); assay type: cell-based; details: maximal concentrations not showing toxicity, 0.3% DMSO
Protocol: H4 neuroglioma cells (HTB-148; ATCC) were passaged in DME containing 10% fetal calf serum (FCS). They were plated into 10 cm dishes at 7.5×10^5 cells per dish and the following day transfected with DNA and Fugene (Promega, Madison, WI) at a ratio of 3:1 with 7 μg each of Syn-Luc1 (S1) and Syn-Luc2 (S2) plasmids, which are also referred to as syn-hGluc(1) and syn-hGLuc(2) respectively (see Outeiro, T. F. et al. Plos One 3, e1867, incorporated herein by reference in entirety) and 3 μg of red firefly expressing plasmid (pCMV-Red firefly Luc, ThermoFisher, Waltham, MA) per dish according to the manufacturer's directions. S1 and S2 plasmids express αSyn containing split Gaussia luciferase with either the N-terminal fragment (S1) or C-terminal fragment (S2) attached to the C-terminus of αSyn. After 24 hours, the DNA containing media was removed and cells were fed fresh DME media containing 10% FCS. […] Gaussia luciferase activity was measured in the dark 0.1 sec after injection of 100 μl/well of […] coelenterazine, substrate (NanoLight, Pinetop, AZ) using a 2 sec integration on a Veritas Microplate Luminometer (Promega, Madison, WI). The cells were subsequently assayed for red Firefly activity using the ONE-Glo™ Luciferase Assay System kit (Promega, Madison, WI) on a Spectramax M5 (Molecular Devices, San Jose, CA) plate reader as a normalization measure. […]

αSyn [2] = molecular target: T1, αSyn; test: Biacore T200 SPR kinetics and affinity to tethered αSyn; assay type: binding; parameters: made in house; host or cells: E. coli
Protocol: RU (resonance units) from the Biacore machine are plotted against time. […] 576755 was injected at six concentrations in two-fold dilutions starting at 200 μM in running buffer containing 25 mM TRIS pH 7.4, 100 mM NaCl, 1% DMSO. […] All data were fitted to 1:1 binding model using the T200 software evaluation.
A Biacore Surface Plasmon Resonance (SPR) method was developed to detect binding to αSyn both in a high throughput manner (Biacore 4000 machine) and in a sensitive format (Biacore T200). A dual capture method was developed in which αSyn is captured both by an antibody to the central region of αSyn and by immobilized N-termal His-tagged αSyn. […]
Surface Plasmon Resonance Measurements. […] Time-dependent binding curves were monitored simultaneously. […] The time-dependent binding curves were monitored simultaneously. […]
Affinity constants were determined using the Biacore T200 evaluation software V.1 by curve fitting using a 1:1 binding model. […] The rate of complex formation during fragment injection is calculated according to the equation (2): dR/dt=kaC(Rmax−R)−kdR (1:1 interaction), where R is the SPR signal in response units (RU), C is the concentration of analyte, Rmax is the maximum analyte binding capacity in RU, and dR/dt is the rate of SPR signal change. […]

Kd (αSyn [2]; six concentrations in two-fold dilutions from 200 μM, 25 mM TRIS pH 7.4, 100 mM NaCl, 1% DMSO, read-out: binding affinity for αSyn (kinetics fits, 1:1 binding model)): 73 µM
SMILES: CNC(=O)c1cc(O)ccc1N [Compound 576755, 2-amino-5-hydroxy-N-methylbenzamide]
impact on cellular αSyn oligomerization (αSyn [1]): reproducibly reduced cellular oligomers; also recorded: reduces αSyn oligomerization
binding behaviour (Biacore traces, off rates) (αSyn [2]; tethered αSyn): well-behaved, robust and reversible binding
